Experiment [1] deals with Signal transducer and activator of transcription 3 (Homo sapiens, UniProt P40763). As to the kind of experiment: Inhibition of human recombinant STAT3 (127 to 722 residues) transcriptional activity expressed in HEK293T cells in presence of IL-6 by Dual-luciferase reporter gene assay. Type of experiment: cell-based.
A short description of experiment [2]: Inhibition of ATP production in human MKN-45 cells incubated for 20 to 24 hrs by ATP assay kit method. Type of experiment: functional, cell-based.
The next experiment relates to AGS. Put plainly: Antiproliferative activity against human AGS cells assessed as reduction in cell viability incubated for 72 hrs by MTS assay. It is filed as functional, cell-based.
Another experiment relates to MGC-803. As to the kind of experiment: Antiproliferative activity against human MGC-803 cells assessed as reduction in cell viability incubated for 72 hrs by MTS assay. It is filed as functional, cell-based. Conditions: MGC-803, 72 h.
In another experiment the test system is MKN-45. As to the kind of experiment: Antiproliferative activity against human MKN-45 cells assessed as reduction in cell viability incubated for 72 hrs by MTS assay. It is filed as functional, cell-based. The settings on record: MKN-45, 72 h.

Bounds are passed on as bounds.

Sequence of Signal transducer and activator of transcription 3 (P40763 whole entry, the tested form may be a part): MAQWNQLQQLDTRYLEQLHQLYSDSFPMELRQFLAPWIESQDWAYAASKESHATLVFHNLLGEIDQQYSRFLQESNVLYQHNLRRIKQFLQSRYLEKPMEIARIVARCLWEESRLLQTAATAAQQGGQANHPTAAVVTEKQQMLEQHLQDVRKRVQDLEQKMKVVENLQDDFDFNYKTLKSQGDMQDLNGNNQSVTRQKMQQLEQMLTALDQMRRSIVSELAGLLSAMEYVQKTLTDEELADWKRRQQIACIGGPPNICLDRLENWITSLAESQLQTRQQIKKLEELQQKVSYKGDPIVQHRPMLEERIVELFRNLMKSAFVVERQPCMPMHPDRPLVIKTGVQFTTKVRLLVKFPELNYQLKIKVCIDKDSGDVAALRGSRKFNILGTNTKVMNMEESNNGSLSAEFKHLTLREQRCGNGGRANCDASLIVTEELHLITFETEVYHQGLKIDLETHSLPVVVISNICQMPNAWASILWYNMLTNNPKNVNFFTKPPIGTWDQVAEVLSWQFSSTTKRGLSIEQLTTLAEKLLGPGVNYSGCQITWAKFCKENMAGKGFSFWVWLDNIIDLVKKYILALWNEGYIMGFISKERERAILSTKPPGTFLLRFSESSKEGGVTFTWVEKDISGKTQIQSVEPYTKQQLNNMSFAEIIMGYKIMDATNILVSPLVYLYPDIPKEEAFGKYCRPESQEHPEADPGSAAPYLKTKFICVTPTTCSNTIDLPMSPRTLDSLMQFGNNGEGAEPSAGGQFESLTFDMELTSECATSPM

In the case of `O=C(c1ccc(-c2nc(-c3ccc(Br)cc3)no2)nc1)N1CCN(Cc2ccc(OCC(F)(F)F)cc2)CC1`, the IC50 in experiment [1] worked out at 93.2 nM.
`CC(C)(C)c1ccc(-c2noc(-c3ccc(C(=O)N4CCN(Cc5ccc(OCC(F)(F)F)cc5)CC4)cn3)n2)cc1`: the IC50 in experiment [1] was greater than 1000 nM.
As for `O=C(c1ccc(-c2nc(-c3ccc(C(F)(F)F)cc3)co2)nc1)N1CCN(Cc2ccc(OCC(F)(F)F)cc2)CC1`, in experiment [1], the IC50 is 94.1 nM.
The same measure, in the same setting: under `CC(=O)Oc1ccc(CN2CCN(C(=O)c3ccc(-c4nc(-c5ccc(C(F)(F)F)cc5)no4)nc3)CC2)cc1` stands 306 nM; under `CCN1CCN(C(=O)c2ccc(-c3nc(-c4ccc(C(F)(F)F)cc4)no3)nc2)CC1`, greater than 1000 nM; under `O=C(c1ccc(-c2nc(-c3ccc(C(F)(F)F)cc3)no2)nc1)N1CCN(Cc2cccc(OC(F)(F)F)c2)CC1`, 325 nM.
Still for that read-out and setting: under `CS(=O)(=O)c1ccc(CN2CCN(C(=O)c3ccc(-c4nc(-c5ccc(C(F)(F)F)cc5)no4)nc3)CC2)cc1` stands 273 nM; under `COc1ccc(-c2noc(-c3ccc(C(=O)N4CCN(Cc5ccc(OCC(F)(F)F)cc5)CC4)cn3)n2)cc1`, 113 nM.
In the case of `O=C(/C=C/c1ccc(OC(F)(F)F)cc1)N1CCN(C(=O)c2ccc(-c3nc(-c4ccc(C(F)(F)F)cc4)no3)nc2)CC1`, in experiment [1], the IC50 was found to be 173 nM.
Same read-out and setting: for `O=C(c1ccc(-c2nc(-c3ccc(C(F)(F)F)cc3)no2)nc1)N1CCN(Cc2c(F)cc(Br)cc2F)CC1` the value was greater than 1000 nM; for `N#Cc1ccc(CN2CCN(C(=O)c3ccc(-c4nc(-c5ccc(C(F)(F)F)cc5)no4)nc3)CC2)cc1`, 477 nM.
In the case of `O=C(c1cccc(-c2nc(-c3ccc(C(F)(F)F)cc3)no2)c1)N1CCN(Cc2ccc(OCC(F)(F)F)cc2)CC1`, the IC50 in experiment [1] amounted to 52.1 nM; in experiment [2], 55.9 nM; in the experiment on AGS, 27.1 nM; in the experiment on MGC-803, 28.1 nM; in the experiment with MKN-45, 41.6 nM.
For the molecule `O=C(c1ccc(-c2nc(-c3ccc(C(F)(F)F)cc3)no2)nc1)N1CCN(Cc2ccc(Cl)cc2)CC1`, in experiment [1], the IC50 is 108 nM.
Still for that read-out and setting: for `O=C(c1ccc(-c2nc(-c3ccc(C(F)(F)F)cc3)no2)nc1)N1CCN(Cc2ccc(Br)cc2F)CC1` the value was 564 nM; for `O=C(c1ccc(-c2nc(-c3cccs3)no2)nc1)N1CCN(Cc2ccc(OCC(F)(F)F)cc2)CC1`, greater than 1000 nM; for `Nc1ccc(CN2CCN(C(=O)c3ccc(-c4nc(-c5ccc(C(F)(F)F)cc5)no4)nc3)CC2)cc1`, greater than 1000 nM.
On the same count and under the same terms, under `O=C(Cc1ccc(OC(F)(F)F)cc1)N1CCN(C(=O)c2ccc(-c3nc(-c4ccc(C(F)(F)F)cc4)no3)nc2)CC1` stands 359 nM; under `O=C(c1ccc(-c2nc(-c3ccc(C(F)(F)F)cc3C(F)(F)F)no2)nc1)N1CCN(Cc2ccc(OCC(F)(F)F)cc2)CC1`, greater than 1000 nM.
As for `O=C(c1ccc(-c2nc(-c3ccc(C(F)(F)F)cc3)no2)nc1)N1CCN(Cc2ccc(OC(F)(F)F)cc2)CC1`, the IC50 is 63.6 nM in experiment [1]; 598 nM in experiment [2]; 59.8 nM with AGS; 12.7 nM in the experiment with MGC-803; 16.4 nM with MKN-45.
Take `O=C(c1ccc(-c2nc(-c3cccc(F)c3)no2)nc1)N1CCN(Cc2ccc(OCC(F)(F)F)cc2)CC1`: the IC50 in experiment [1] was determined as 177 nM.
On to `O=C(c1ccc(-c2nc(-c3ccc(C(F)(F)F)c(F)c3)no2)nc1)N1CCN(Cc2ccc(OCC(F)(F)F)cc2)CC1`, for which the IC50 is 40.2 nM in experiment [1]; 218 nM in experiment [2]; 21.5 nM in the experiment with AGS; 22.2 nM with MGC-803; 21.2 nM with MKN-45.
Turning to `Cc1ccc(-c2noc(-c3ccc(C(=O)N4CCN(Cc5ccc(OCC(F)(F)F)cc5)CC4)cn3)n2)cc1`, the IC50 in experiment [1] was 258 nM.
On the same count and under the same terms, for `O=C(c1ncc(-c2nc(-c3ccc(C(F)(F)F)cc3)no2)s1)N1CCN(Cc2ccc(OCC(F)(F)F)cc2)CC1` the value was greater than 1000 nM.
Turning to `CC(=O)c1cc2c(o1)C(=O)c1ccccc1C2=O` [NAPABUCASIN], the results for the concentration for half-maximal inhibition (IC50) in the experiment on AGS, in the experiment on MGC-803 and with MKN-45 were 437 nM, 872 nM and 3940 nM, respectively.
Consider `COc1ccc(CN2CCN(C(=O)c3ccc(-c4nc(-c5ccc(C(F)(F)F)cc5)no4)nc3)CC2)cc1`, for which the IC50 in experiment [1] turned out to be 147 nM.
Consider `O=C(c1ccc(-c2nc(-c3cncs3)no2)nc1)N1CCN(Cc2ccc(OCC(F)(F)F)cc2)CC1`, for which the IC50 in experiment [1] was greater than 1000 nM.
The same measure, in the same setting: under `O=C(c1ccc(-c2nc(-c3ccc(C(F)(F)F)cc3)no2)nc1)N1CCN(Cc2ccccc2OCC(F)(F)F)CC1` stands greater than 1000 nM; under `O=C(c1ccc(-c2nc(-c3ccc(C(F)(F)F)cc3)no2)nc1)N1CCN(Cc2ccc(NCC(F)(F)F)cc2)CC1`, greater than 1000 nM; under `O=C(c1ccc(-c2nc(-c3cccc(C(F)(F)F)c3)no2)nc1)N1CCN(Cc2ccc(OCC(F)(F)F)cc2)CC1`, 130 nM.
On to `O=C(c1ccc(-c2nc(-c3ccc(OC(F)(F)F)cc3)no2)nc1)N1CCN(Cc2ccc(OCC(F)(F)F)cc2)CC1`, for which the IC50 in experiment [1] is 60.2 nM; in experiment [2] it was 93.2 nM; in the experiment with AGS, 23.5 nM; in the experiment with MGC-803 it was 23.3 nM; in the experiment on MKN-45 it was 36.4 nM.
On to `O=C(c1ccc(OC(F)(F)F)cc1)N1CCN(C(=O)c2ccc(-c3nc(-c4ccc(C(F)(F)F)cc4)no3)nc2)CC1`, for which, in experiment [1], the half-maximal inhibitory concentration (IC50) was greater than 1000 nM.
For `O=C(c1ccc(-c2nc(-c3ccc(C(F)(F)F)cc3)no2)nc1)N1CCN(Cc2ccc(Br)cc2)CC1`, the IC50 in experiment [1] was 40.2 nM; in experiment [2], 520 nM; in the experiment on AGS, 77.8 nM; in the experiment on MGC-803, 67.6 nM; in the experiment with MKN-45, 108 nM.
In the case of `O=C(c1ncccc1-c1nc(-c2ccc(C(F)(F)F)cc2)no1)N1CCN(Cc2ccc(OCC(F)(F)F)cc2)CC1`, the concentration for half-maximal inhibition (IC50) in experiment [1] is greater than 1000 nM.
Same read-out and setting: for `O=C(c1ccc(-c2nc(-c3ncccn3)no2)nc1)N1CCN(Cc2ccc(OCC(F)(F)F)cc2)CC1` the value was greater than 1000 nM; for `O=C(c1ccc(-c2nc(-c3ccc(C(F)(F)F)cc3)cs2)nc1)N1CCN(Cc2ccc(OCC(F)(F)F)cc2)CC1`, 516 nM.
On to `O=C(c1ccc(-c2nc(-c3ccc(Cl)cc3)no2)nc1)N1CCN(Cc2ccc(OCC(F)(F)F)cc2)CC1`, for which, in experiment [1], the IC50 is 271 nM.
Still for that read-out and setting: for `O=C(c1ccc(-c2nc(-c3ccccc3)no2)nc1)N1CCN(Cc2ccc(OCC(F)(F)F)cc2)CC1` the value was greater than 1000 nM.
On the same count and under the same terms, under `O=C(c1ccc(-c2cn(-c3ccc(C(F)(F)F)cc3)nn2)nc1)N1CCN(Cc2ccc(OCC(F)(F)F)cc2)CC1` stands 113 nM; under `O=C(c1ccc(-c2nc(-c3ccc(C(F)(F)F)cc3)no2)nc1)N1CCN(Cc2ccc(Br)c(F)c2)CC1`, 296 nM.
As for `O=C(c1ccc(-c2nc(-c3ccccc3F)no2)nc1)N1CCN(Cc2ccc(OCC(F)(F)F)cc2)CC1`, the IC50 in experiment [1] was greater than 1000 nM.
The same measure, in the same setting: for `O=C(c1ccccc1-c1nc(-c2ccc(C(F)(F)F)cc2)no1)N1CCN(Cc2ccc(OCC(F)(F)F)cc2)CC1` the value was greater than 1000 nM.
On to `CC(C)(C)c1ccc(CN2CCN(C(=O)c3ccc(-c4nc(-c5ccc(C(F)(F)F)cc5)no4)nc3)CC2)cc1`, for which the IC50 in experiment [1] is 88.1 nM; in experiment [2] it was 200 nM; with AGS, 67.6 nM; in the experiment on MGC-803, 31.8 nM; in the experiment with MKN-45, 54.5 nM.
Consider `O=C(c1ccc(-c2nc(-c3ccc(F)cc3)no2)nc1)N1CCN(Cc2ccc(OCC(F)(F)F)cc2)CC1`, for which the concentration for half-maximal inhibition (IC50) in experiment [1] was determined as 123 nM.
Take `O=C(c1ccc(-c2nc(-c3ccc(C(F)(F)F)cc3)no2)nc1)N1CCN(Cc2ccc(OCC(F)(F)F)cc2)CC1`: the IC50 in experiment [1] is 37.4 nM; in experiment [2], 72.5 nM; in the experiment on AGS, 8.4 nM; in the experiment with MGC-803, 11.5 nM; in the experiment with MKN-45 it was 18.4 nM.
As for `O=C(c1ccc(-c2nc(-c3ccccc3C(F)(F)F)no2)nc1)N1CCN(Cc2ccc(OCC(F)(F)F)cc2)CC1`, the IC50 in experiment [1] was greater than 1000 nM.
The same measure, in the same setting: for `O=C(c1ccc(-c2nc(-c3ccc(C(F)(F)F)cc3)no2)nc1)N1CCN(Cc2ccccc2OC(F)(F)F)CC1` the value was greater than 1000 nM.
In the case of `O=C(c1cc(-c2nc(-c3ccc(C(F)(F)F)cc3)no2)ccn1)N1CCN(Cc2ccc(OCC(F)(F)F)cc2)CC1`, the IC50 in experiment [1] was determined as 32.3 nM; in experiment [2], 87.6 nM; with AGS, 8.7 nM; in the experiment with MGC-803 it was 13.1 nM; with MKN-45 it was 153 nM.
With `CCCN1CCN(C(=O)c2ccc(-c3nc(-c4ccc(C(F)(F)F)cc4)no3)nc2)CC1`, in experiment [1], the IC50 amounted to 533 nM.
`O=C(c1cnc(-c2noc(-c3ccc(C(F)(F)F)cc3)n2)cn1)N1CCN(Cc2ccc(OCC(F)(F)F)cc2)CC1`: the IC50 in experiment [1] was 58 nM; in experiment [2], 242 nM; with AGS it was 27.2 nM; in the experiment with MGC-803, 32.4 nM; in the experiment with MKN-45, 49.5 nM.
The matching figures for `O=C(c1ccc(-c2nc(-c3ccc(C(F)(F)F)cc3)no2)cn1)N1CCN(Cc2ccc(OCC(F)(F)F)cc2)CC1`: 75.9 nM, 97.8 nM, 22.8 nM, 15.3 nM and 24.6 nM.
Take `CN1CCN(C(=O)c2ccc(-c3nc(-c4ccc(C(F)(F)F)cc4)no3)nc2)CC1`: the IC50 in experiment [1] came to 2790 nM.
The same measure, in the same setting: for `Cc1ccc(CN2CCN(C(=O)c3ccc(-c4nc(-c5ccc(C(F)(F)F)cc5)no4)nc3)CC2)cc1` the value was 182 nM.
On the same count and under the same terms, under `O=C(c1ccc(-c2nc(-c3ccc(C(F)(F)F)cc3)no2)s1)N1CCN(Cc2ccc(OCC(F)(F)F)cc2)CC1` stands 167 nM; under `O=C(c1ccc(-c2nc(-c3ccc(C(F)(F)F)cc3)no2)nc1)N1CCN(Cc2ccc(F)cc2)CC1`, 304 nM.
Same read-out and setting: under `O=C(c1ccc(-c2nc(-c3ccc(C(F)(F)F)cc3)no2)nc1)N1CCN(Cc2cccc(OCC(F)(F)F)c2)CC1` stands 803 nM.

Source of the values: ChEMBL document CHEMBL5108044, “Discovery of a Novel Potent STAT3 Inhibitor HP590 with Dual p-Tyr705/Ser727 Inhibitory Activity for Gastric Cancer Treatment” (J Med Chem, 2022).
